Measured values as given in ChEMBL document CHEMBL1131905, “Tokaramide A, a new cathepsin B inhibitor from the marine sponge Theonella aff. mirabilis” (Bioorg Med Chem Lett, 1999).

Legend:
Cathepsin B [1] = molecular target: T1, Cathepsin B (Homo sapiens, UniProt P07858); assay: Inhibitory activity against Cathepsin B was determined
Cathepsin B [2] = molecular target: T1, Cathepsin B; assay: Inhibitory activity against Cathepsin B at a concentration of 10 ng/mL
Cathepsin B [3] = molecular target: T1, Cathepsin B; assay: Inhibitory activity against Cathepsin B at a concentration of 1 ng/mL
Cathepsin B [4] = molecular target: T1, Cathepsin B; assay: Inhibitory activity against Cathepsin B at a concentration of 200 ng/mL
Cathepsin B [5] = molecular target: T1, Cathepsin B; assay: Inhibitory activity against Cathepsin B at a concentration of 400 ng/mL
Cathepsin B [6] = molecular target: T1, Cathepsin B; assay: Inhibitory activity against Cathepsin B at a concentration of 50 ng/mL
Cathepsin B [7] = molecular target: T1, Cathepsin B; assay: Inhibitory activity against Cathepsin B at a concentration of 70 ng/mL
Cathepsin B [8] = molecular target: T1, Cathepsin B; assay: Inhibitory activity against Cathepsin B at a concentration of 7 ng/mL
Cathepsin B [9] = molecular target: T1, Cathepsin B; assay: Inhibitory activity against Cathepsin B at a concentration of 4 ng/mL
Cathepsin B [10] = molecular target: T1, Cathepsin B; assay: Inhibitory activity against Cathepsin B at a concentration of 1000 ng/mL
Cathepsin B [11] = molecular target: T1, Cathepsin B; assay: Inhibitory activity against Cathepsin B at a concentration of 900 ng/mL
Cathepsin B [12] = molecular target: T1, Cathepsin B; conditions: 40 ng/mL
Description: Inhibitory activity against Cathepsin B at a concentration of 40 ng/mL

Row | IC50 (Cathepsin B [1]) | inhibition (Cathepsin B [2]) | inhibition (Cathepsin B [3]) | inhibition (Cathepsin B [5]) | inhibition (Cathepsin B [7]) | inhibition (Cathepsin B [8]) | inhibition (Cathepsin B [9]) | inhibition (Cathepsin B [12]) | SMILES | inhibition (Cathepsin B [4]) | inhibition (Cathepsin B [6]) | inhibition (Cathepsin B [10]) | inhibition (Cathepsin B [11])
1 | 0.0137 µM | 75% | 24% | 100% | 95% | 52% | 29% | – | CC(C)C[C@H](NC(=O)[C@H]1O[C@@H]1C(=O)O)C(=O)NCCCCN=C(N)N [E-64] | 98% | 90% | – | –
2 | 0.0609 µM | 30% | 10% | 90% | 70% | 16% | 12% | 45% | CC(C)[C@H](NC(=O)c1ccc(O)cc1)C(=O)N[C@H](C(=O)N[C@H](C=O)CCCN=C(N)N)C(C)C [TOKARAMIDE A] | – | – | – | 100%

Row | SMILES | IC50 (Cathepsin B [1]) | inhibition (Cathepsin B [2]) | inhibition (Cathepsin B [3]) | inhibition (Cathepsin B [5]) | inhibition (Cathepsin B [7]) | inhibition (Cathepsin B [8]) | inhibition (Cathepsin B [9]) | inhibition (Cathepsin B [12]) | inhibition (Cathepsin B [4]) | inhibition (Cathepsin B [6]) | inhibition (Cathepsin B [10]) | inhibition (Cathepsin B [11])
3 | CC(=O)N[C@@H](CC(C)C)C(=O)N[C@@H](CC(C)C)C(=O)N[C@H](C=O)CCCNC(=N)N [LEUPEPTIN] | 0.0216 µM | 55% | 15% | 100% | 82% | 35% | 25% | – | 95% | 75% | 100% | 100%
